{
  "source": "paper PMC8765320",
  "about": "“Identification of a Proteasome-Targeting Arylsulfonamide with Potential for the Treatment of Chagas’ Disease” (Antimicrobial Agents and Chemotherapy, 2022)",
  "key": {"[1]": {"tested_on": "L. donovani axenic amastigote", "assay": "L. donovani axenic amastigote drug sensitivity assay", "assay_type": "cell-based", "conditions": "Leishmania donovani, weighted mean, n ≥ 3, read-out: Mean compound 1 EC50 ± SD", "protocol": "(§1) L. donovani promastigote ([35]), axenic amastigote ([25]), and T. brucei bloodstream form ([36]) drug sensitivity assays were carried out as previously described. HepG2 monolayers were washed twice in PBS, detached with 0.05% trypsin/EDTA, and then diluted with fully supplemented MEM growth medium. Cells were pelleted at 80 × g for 5 min and resuspended in fully supplemented growth medium. Cells were seeded into 96-well plates (5 × 10^4/well) and allowed to adhere prior to exposure to test compounds. Plates were incubated at 37°C in the presence of 5% CO2 for 72 h. After incubation, resazurin (20 μl of a 2.5-mg/ml^−1 stock solution) was added to each well, followed by incubation for a further 2 h prior to fluorescence being read as described above."}, "[2]": {"tested_on": "T. brucei BSF", "assay": "T. brucei bloodstream form drug sensitivity assay", "assay_type": "cell-based", "conditions": "Trypanosoma brucei, weighted mean, n ≥ 3, read-out: Mean compound 1 EC50 ± SD", "protocol": "as §1"}, "[3]": {"tested_on": "ubiquitinated proteins in T. cruzi epimastigotes", "assay": "Accumulation of ubiquitinated proteins in treated epimastigotes (LC-MS/MS)", "assay_type": "cell-based, Trypanosoma cruzi", "conditions": "epimastigotes pretreated 8 h at 3× EC50 (methods: 8× EC50); one biological replicate", "protocol": "In cells where the function of the proteasome has been compromised, there is a concomitant build-up of ubiquitinated proteins earmarked for degradation. […] Control cultures were treated for the same period of time in the presence of dimethyl sulfoxide (DMSO). Enrichment of ubiquitinated proteins was achieved by immunoprecipitation using magnetic beads conjugated to an antibody specific for the remnant of ubiquitinated lysines following digestion with trypsin and/or LysC. We used liquid chromatography-tandem mass spectrometry (LC-MS/MS) to calculate the ubiquitination ratio of each sample by dividing the reporter intensity of ubiquitinated proteins by the reporter intensity of total protein (see Table S8). As expected, the accumulation of ubiquitinylated proteins was highest in epimastigotes treated with bortezomib (2.7-fold higher than in the DMSO-treated control), which is known to inhibit all three catalytic activities of the proteasome (Fig. 3). […] Similarly, ubiquitinated proteins accumulated to levels 1.9-fold higher in compound 1-treated parasites compared to those recovered from DMSO-treated control cells.\nControls were incubated in the presence of diluent (DMSO). Cells were harvested by centrifugation (1,912 × g, 15 min, 4°C) and washed with ice-cold PBS (1,912 × g, 5 min, 4°C); finally, the cell pellets were resuspended in 1.5 ml of ice-cold lysis buffer (1 mM EDTA, 1 mM DTT, 100 μM TLCK, and 1× Roche EDTA-free cOmplete protease inhibitor cocktail in 50 mM potassium phosphate buffer [pH 7.4]). Cell suspensions were submitted to three freeze-thaw cycles in a dry ice/ethanol bath to biologically inactivate the parasites and then lysed using a OneShot cell disruptor (Constant Systems) at 30 kpsi.\nCell lysates were centrifuged (100,000 × g, 20 min, 4°C), supernatants were collected, and the protein concentrations were determined by using a standard Bio-Rad protein assay. […]"}, "[4]": {"tested_on": "cytosolic T. cruzi malic enzyme (cTcME; C4B63_28g106)", "assay": "Thermal proteome profiling, cTcME", "assay_type": "binding, Trypanosoma cruzi", "conditions": "for ΔTm 1 / ΔTm 2: malic enzyme C4B63_28g106", "protocol": "Aliquots of each lysate were then incubated at designated temperatures (33 to 69°C) and then, for each temperature, insoluble (denatured) proteins were removed. The resulting soluble protein samples were reduced, alkylated, and digested with trypsin prior to derivatization with tandem mass tags. Pooled peptides were fractionated by high-pressure liquid chromatography and analyzed by LC/MS-MS prior to identification and quantitation. The melting points of identified proteins were then established using the TPP software package. Full melt curves were established for 6,771 proteins, representing 39.4% coverage of the T. cruzi proteome.\nT. cruzi (X10/7 strain) mid-log-phase epimastigotes (∼1 × 10^10) were harvested by centrifugation (1,912 × g, 15 min, 4°C) and washed with ice-cold PBS (1,912 × g, 5 min, 4°C); finally, the cell pellet was resuspended in 8 ml of ice-cold lysis buffer (1 mM EDTA, 1 mM dithiothreitol [DTT], 100 μM TLCK [Nα-p-tosyl-L-lysine chloromethyl ketone], and 1× Roche EDTA-free COmplete protease inhibitor cocktail in 50 mM potassium phosphate buffer [pH 7.4]). The cell suspension was submitted to three freeze-thaw cycles in a dry ice/ethanol bath to biologically inactivate the parasites and then submitted to cell disruption (Constant Systems, UK) at 30 kpsi. The resulting lysate was centrifuged (100,000 × g, 20 min, 4°C), the supernatant was collected, and the protein concentration was determined using a Bio-Rad protein assay.\nEach 2-ml aliquot (drug and vehicle treated) was divided into 10 × 100-μl aliquots in 0.5-ml thin-walled PCR tubes, followed by incubation at a designated temperature (33, 37, 41, 45, 49, 53, 57, 61, 65, or 69°C) for 3 min, followed in turn by incubation at room temperature for 3 min before each sample was placed on ice. Each aliquot was centrifuged (100,000 × g, 20 min, 4°C), the supernatants were harvested, and the protein concentration was assessed.\nAll aspects of sample processing, peptide and protein identification and quantitation, and target identification were carried out as previously described ([15]). However, in this instance, proteins were identified by searching the MS and MS/MS data for the peptides against T. cruzi proteome Dm28c 2018 version 50 (https://tritrypdb.org/tritrypdb)."}},
  "data": [
    {"smiles": "COc1ccc(NS(=O)(=O)c2cc(-c3cc(C)n[nH]3)ccc2C)cc1OC", "note": "[Compound 1]", "values": [
      {"measurement": "EC50", "setting": "[1]", "result": "0.7 ± 0.1", "unit": "µM"},
      {"measurement": "EC50", "setting": "[2]", "result": "0.3 ± 0.013", "unit": "µM"},
      {"measurement": "accumulation of ubiquitinated proteins versus DMSO-treated control", "setting": "[3]", "result": 1.9, "unit": "fold"},
      {"measurement": "increase in thermal stability of cTcME (mean ΔTm)", "setting": "[4]; experiment 1, lysate, compound at 10× EC50 (20 μM)", "result": 8.8, "unit": "°C"},
      {"measurement": "ΔTm 1", "setting": "[4]; biological replicate 1", "result": 8.6, "unit": "°C"},
      {"measurement": "ΔTm 2", "setting": "[4]; biological replicate 1", "result": 9.08, "unit": "°C"},
      {"measurement": "ΔTm 1", "setting": "[4]; biological replicate 2", "result": 5.6, "unit": "°C"},
      {"measurement": "ΔTm 2", "setting": "[4]; biological replicate 2", "result": 3.73, "unit": "°C"}
    ]}
  ]
}
